Measurements reported in patent publication US4866044A, “Solubilized composition of poorly-soluble pharmaceutical product” (Takeda Chemical Industries, Ltd., priority 1985, dated 1989).

Key:
[1] = pH 6
[2] = physchem; conditions: water

Compound	redissolubility [1]	solubility [2]
alanine	O (key: O: dissolved within one minute; Δ: dissolved within one to three minutes)	–
CCCCCCCCCCCCCCCCCCNC(=O)OCC(COP(=O)([O-])OCC[n+]1ccsc1)OC (centres unmarked) [Compound [1], 3-(n-Octadecylcarbamoyloxy)-2-methoxypropyl 2-thiazolioethyl phosphate]	–	~100 mg/mL
